Assay: refractive index (Na D-line) (dimensionless); cn = amount concentration of the nth substance listed, in mol/dm3
Settings: 101.3 kPa, Liquid, Standard Abbe refractometry

CC(N)C(=O)[O-].[K+] (stereo not drawn) [potassium DL-alaninate] + O
refractive index
Settings | 303.15 K | 308.15 K | 313.15 K | 318.15 K | 323.15 K | 328.15 K | 333.15 K | 338.15 K | 343.15 K
c1 = 0.526 | 1.3409 | 1.34021 | 1.33947 | 1.33867 | 1.33782 | 1.33692 | 1.33599 | 1.335 | 1.33402
c1 = 1.009 | 1.34955 | 1.3488 | 1.34802 | 1.3472 | 1.34634 | 1.34542 | 1.34446 | 1.34349 | 1.34248
c1 = 1.501 | 1.35822 | 1.35743 | 1.35661 | 1.35576 | 1.35486 | 1.35394 | 1.35299 | 1.352 | 1.35098
c1 = 2.005 | 1.36647 | 1.36566 | 1.36481 | 1.36391 | 1.363 | 1.36206 | 1.3611 | 1.3601 | 1.3591
c1 = 2.501 | 1.37461 | 1.37375 | 1.37285 | 1.37195 | 1.37103 | 1.37004 | 1.36904 | 1.36803 | 1.36701
c1 = 2.986 | 1.38281 | 1.38192 | 1.38098 | 1.38002 | 1.37908 | 1.37809 | 1.3771 | 1.3761 | 1.37507
c1 = 3.498 | 1.39058 | 1.38964 | 1.3887 | 1.38775 | 1.38677 | 1.38576 | 1.38471 | 1.38364 | 1.38259

CC(N)C(=O)[O-].[Na+] (stereo not drawn) [sodium DL-alaninate] + O
refractive index
Settings | 303.15 K | 308.15 K | 313.15 K | 318.15 K | 323.15 K | 328.15 K | 333.15 K | 338.15 K | 343.15 K
c1 = 0.498 | 1.3409 | 1.34021 | 1.33945 | 1.33864 | 1.33778 | 1.33688 | 1.33592 | 1.3349 | 1.33388
c1 = 0.99 | 1.34952 | 1.34876 | 1.34796 | 1.34712 | 1.34624 | 1.34528 | 1.34432 | 1.34333 | 1.34232
c1 = 1.485 | 1.35799 | 1.35719 | 1.35636 | 1.35547 | 1.35455 | 1.35358 | 1.35259 | 1.35156 | 1.35053
c1 = 1.983 | 1.3663 | 1.36544 | 1.36454 | 1.36361 | 1.36264 | 1.36164 | 1.36061 | 1.35958 | 1.35853
c1 = 2.476 | 1.37433 | 1.37341 | 1.37246 | 1.37149 | 1.37049 | 1.36949 | 1.36845 | 1.36735 | 1.36627
c1 = 3.063 | 1.38382 | 1.38284 | 1.3818 | 1.38074 | 1.3797 | 1.37866 | 1.37755 | 1.37643 | 1.37534
